Test results taken from US9630943B2, “Tetrahydronaphthyl(thio) carboxamides” (BAYER CROPSCIENCE AG, priority 2012, dated 2017).
Where two headings read alike, the source gives them in different places.

How the values were obtained:
[1] = Measurement of logP values by HPLC on reversed phase columns (EEC directive 79/831 Annex V.A8); format: physicochemical; conditions: for LogP[a] / LogP^[a]: method [a]; for LogP[a]: HPLC on reversed phase columns
Botrytis cinerea = test: In vivo preventive test on Botrytis cinerea (grey mould); conditions: gherkin plants, preventive spray, dose 100 ppm, grading 4 to 5 days after contamination
Experimental: Gherkin plants (“Vert petit de Paris” variety), sown in starter cups on a 50/50 peat soil-pozzolana substrate and grown at 24° C., are treated at the Z11 cotyledon stage by spraying with the active ingredient prepared as described above. Plants, used as controls, are treated with the mixture of acetone/tween/DMSO/water not containing the active material. After 24 hours, the plants are contaminated by spraying the cotyledons with an aqueous suspension of cryopreserved Botrytis cinerea spores (50 000 spores per ml). The spores are suspended in a nutrient solution composed of 10 g/L of PDB, 50 g/L of D-Fructose, 2 g/L of NH4NO3 and 1 g/L of KH2PO4. […] Grading (% of efficacy) is carried out 4 to 5 days after the contamination, in comparison with the control plants.

Pyricularia oryzae = format: in vivo; conditions: rice plants, preventive spray, dose 500 ppm, grading 6 days after contamination
Uromyces appendiculatus = test: In vivo preventive test on Uromyces appendiculatus (bean rust); conditions: bean plants, preventive spray, dose 100 ppm, grading 11 days after contamination
Experimental: Plants, used as controls, are treated with the mixture of acetone/tween/DMSO/water not containing the active material. After 24 hours, the plants are contaminated by spraying the leaves with an aqueous suspension of Uromyces appendiculatus spores (150 000 spores per ml). […] Grading (% of efficacy) is carried out 11 days after the contamination, in comparison with the control plants.

Septoria tritici = test: In vivo preventive test on Septoria tritici (leaf spot on wheat); conditions: wheat plants, preventive spray, dose 100 ppm, grading 24 days after contamination
Experimental: Wheat plants (“Scipion” variety), sown in starter cups on a 50/50 peat soil-pozzolana substrate and grown at 22° C., are treated at the 1-leaf stage (10 cm height) by spraying with the active ingredient prepared as described above. Plants, used as controls, are treated with the mixture of acetone/tween/DMSO/water not containing the active material. After 24 hours, the plants are contaminated by spraying the leaves with an aqueous suspension of cryopreserved Septoria tritici spores (500 000 spores per ml). […] Grading (% of efficacy) is carried out 24 days after the contamination, in comparison with the control plants.

Alternaria brassicae = test: In vivo preventive test on Alternaria brassicae (leaf spot on radish); conditions: radish plants, preventive spray, dose 100 ppm, grading 6 days after contamination
Experimental: Radish plants (“Pernod Clair” variety), sown in starter cups on a 50/50 peat soil-pozzolana substrate and grown at 17° C., are treated at the cotyledon stage by spraying with the active ingredient prepared as described above. Plants, used as controls, are treated with the mixture of acetone/tween/DMSO/water not containing the active material. After 24 hours, the plants are contaminated by spraying the cotyledons with an aqueous suspension of Alternaria brassicae spores (50 000 spores per ml). The spores are collected from a 15-day-old culture. The contaminated radish plants are incubated at 20° C. and at 100% relative humidity. Grading (% of efficacy) is carried out 6 days after the contamination, in comparison with the control plants.

Sphaerotheca fuliginea = test: In vivo preventive test on Sphaerotheca fuliginea (powdery mildew on cucurbits); conditions: gherkin plants, preventive spray, dose 100 ppm, grading 12 days after contamination
Experimental: Gherkin plants (“Vert petit de Paris” variety), sown in starter cups on a 50/50 peat soil-pozzolana substrate and grown at 24° C., are treated at the Z11 cotyledon stage by spraying with the active ingredient prepared as described above. Plants, used as controls, are treated with the mixture of acetone/tween/DMSO/water not containing the active material. After 24 hours, the plants are contaminated by spraying the cotyledons with an aqueous suspension of Sphaerotheca fuliginea spores (100 000 spores per ml). The spores are collected from infected plants. […] Grading (% of efficacy) is carried out 12 days after the contamination, in comparison with the control plants.

Phakopsora pachyrhizi = test: In vivo preventive test on Phakopsora pachyrhizi (soybeans); conditions: soybean plants, preventive spray, dose 10 ppm, evaluated 7 days after inoculation
Pyrenophora teres = test: In vivo preventive test on Pyrenophora teres (net blotch on barley); conditions: barley plants, preventive spray, dose 100 ppm, grading 14 days after contamination
Experimental: Barley plants (“Plaisant” variety), sown in starter cups on a 50/50 peat soil-pozzolana substrate and grown at 22° C., are treated at the 1-leaf stage (10 cm height) by spraying with the active ingredient prepared as described above. Plants, used as controls, are treated with the mixture of acetone/tween/DMSO/water not containing the active material. After 24 hours, the plants are contaminated by spraying the leaves with an aqueous suspension of Pyrenophorateres spores (12 000 spores per ml). The spores are collected from a 12-day-old culture. […] Grading (% of efficacy) is carried out 14 days after the contamination, in comparison with the control plants.

In the case of CCCC1CCc2c(NC(=O)c3cn(C)nc3C(F)F)cccc2C1C (mixture of isomers) [Example 95], the “LogP[a]” value [1] is reported as 4.18^[a] and the biological efficacy (Botrytis cinerea) is reported as ≥ 80%.

In the case of Cc1nc(C(F)F)c(C(=O)Nc2cccc3c2CCCC3(C)C)s1 [Example 3], the “LogP^[a]” value [1] is reported as 3.64^[a] and the biological efficacy (Pyricularia oryzae) is reported as ≥ 90%.

For CON=C1CCCc2c(NC(=S)c3nccnc3C(F)(F)F)cccc21 [Example 88], the “LogP^[a]” value [1] was 3.39^[a].

With CCON=C1CCCc2c(NC(=S)c3ccoc3C(F)F)cccc21 [Example 89] the “LogP^[a]” value [1] was 4.11^[a].

For Cc1nn(C)c(C)c1C(=O)Nc1ccc(F)c2c1CCCC2(C)C [Example 90], the “LogP^[a]” value [1] was 2.98^[a].

With CCON=C1CCCc2c(NC(=S)c3nccnc3C(F)(F)F)cccc21 [Example 91] the “LogP^[a]” value [1] was 3.83^[a].

For Cn1cc(C(=O)Nc2cccc3c2C(C)(C)CCC3)c(C(F)F)n1 [Example 92], the “LogP^[a]” value [1] was 2.99^[a].

For CCC1(CC)CCCc2c(NC(=O)c3cn(C)nc3C(F)F)cccc21 [Example 93], the “LogP^[a]” value [1] was 4.03^[a].

For CCCC1(C)CCCc2c(NC(=O)c3cn(C)nc3C(F)F)cccc21 (centres unmarked) [Example 94], the “LogP^[a]” value [1] was 4.08^[a], the biological efficacy (Uromyces appendiculatus) was ≥ 80% and the biological efficacy (Septoria tritici) was ≥ 70%.

In the case of CC1(C)CCc2c(cccc2NC(=S)c2ccoc2C(F)F)C1 [Example 96], the “LogP[a]” value [1] is reported as 4.39^[a] and the biological efficacy (Alternaria brassicae) is reported as ≥ 70%.

With Cc1nc(C(F)F)c(C(=S)Nc2cccc3c2CCC(C)(C)C3)s1 [Example 97, 4-(difluoromethyl)-N-(6,6-dimethyl-5,6,7,8-tetrahydronaphthalen-1-yl)-2-methyl-1,3-thiazole-5-carbothioamide] the biological efficacy (Sphaerotheca fuliginea) was ≥ 80% and the chromatographic logP ([1]; pH 2.7) was 4.16.

For CC(C)C1CCCc2c(NC(=O)c3cn(C)nc3C(F)F)cccc21 (centres unmarked) [Example 98], the biological efficacy (Phakopsora pachyrhizi) was ≥ 70%, the “LogP[a]” value [1] was 3.73^[a] and the biological efficacy (Pyrenophora teres) was ≥ 90%. For the same molecule, the biological efficacy (Botrytis cinerea) was ≥ 90%.

In the case of CC(C)C1CCCc2c(NC(=O)c3cn(C)nc3C(F)(F)F)cccc21 (centres unmarked) [Example 99], the “LogP[a]” value [1] is reported as 3.96^[a].

With CC1(C)CCc2c(N)cccc2C1 [III-a-3, 6,6-dimethyl-5,6,7,8-tetrahydronaphthalen-1-amine] the chromatographic logP ([1]; reversed phase HPLC columns, method [a]: LC-MS at pH 2.7, 0,1% formic acid in water / acetonitrile, gradient 10% to 95% acetonitrile, amines of formula (III-a), read-out: LogP^[a]) was 1.88.
